The values that follow come from patent publication US8017350B2, “Glimepiride- and insulin-induced glycosylphosphatidylinositol-specific phospholipase C regulation” (Sanofi-Aventis Deutschland GmbH, priority 2004, dated 2011).

The nature of one series: stability of compound 3. The class given is physicochemical.
In series [1] the test system is trypanosomal GPI-PLC (T. brucei). The note with it: literature; cited from earlier work.
Series [2] relates to pp59Lyn and Gce1 interaction with caveolin-1 in rat adipocytes. The series can be described thus: dissociation of signaling proteins from caveolin (caveolin-1 immunoprecipitates of hcDIGs). In kind it is cell-based. The note with it: solubilized hcDIGs; FIG. 6. Here is the method:
Solubilized DIGs (see above, 5-20 μg protein) were precleared by incubation with protein A/G-Sepharose and subsequent centrifugation (10,000×g, 5 min). The supernatant was incubated with anti-caveolin-1 antibodies (1:1000) preadsorbed on protein A/G-Sepharose in 1 ml of 10 mM Tris/HCl (pH 7.4), 150 mM NaCl, 1% TX-100 for 1 h at 4° C. The immune complexes were washed twice with the same buffer and then twice with buffer lacking TX-100 and finally subjected to SDS-PAGE performed in the absence of β-mercaptoethanol. The recovery of immunoprecipitated caveolin was normalized by homologous immunoblotting with anti-caveolin antibodies of the same blot following stripping of the membrane.
Polypeptides separated by SDS-PAGE were transferred to polyvinylidene difluoride membranes using the semidry procedure as described in “Müller, G. et al., (2001) Mol. Cell. Biol. 21: 4553-4567”. Washed membranes were incubated with anti-caveolin-1 (1:2000), anti-pp59^Lyn (1:1250), anti-aP (1:500), anti-5′-Nuc (1:750) and anti-IRS-1 (1:2000) antibodies for 4 h at 15° C. Washed membranes were incubated with horseradish peroxidase-coupled secondary goat anti-mouse (1:2000) or goat anti-rabbit IgG (1:4000) antibodies. Labeled proteins were visualized by enhanced chemiluminescence.
FIG. 6: Effect of GPI-2350 on the glimepiride/insulin-induced dissociation of signaling proteins from caveolin. Isolated rat adipocytes were treated (5 min, 37° C.) without or with GPI-2350 (left panels, 50 μM; right panels, increasing conc.) and then incubated (120 min, 37° C.) in the absence or presence of insulin (10 nM) or glimepiride (20 μM). hcDIGs were prepared from the adipocytes and then solubilized. Caveolin-1 immunoprecipitates prepared from the solubilized hcDIGs were assayed for the presence of pp59^Lyn and Gce1 by immunoblotting and photoaffinity-labeling, respectively. […]

Series [3] has as its system GPI-proteins 5′-Nuc, Gce1 and aP in isolated rat adipocytes. Nature of the series: localization of lipolytically cleaved and uncleaved GPI-proteins at hcDIGs, IcDIGs and total plasma membranes (TX-114 partitioning). The class given is cell-based. The following applies: GPI-2350 50 μM, insulin 10 nM, glimepiride 20 μM; for 5′-Nuc amphiph IcDIGs / 5′-Nuc hydroph. IcDIGs / 5′-Nuc hydroph. hcDIGs / Gce1 amphiph IcDIGs / Gce1 hydroph. IcDIGs / Gce1 hydroph. hcDIGs / aP amphiph IcDIGs / aP hydroph. IcDIGs / aP hydroph. hcDIGs: amphiphilic version in hcDIGs of basal adipocytes set at 100; for 5′-Nuc hydroph. PM / Gce1 hydroph. PM / aP hydroph. PM: amphiphilic version in total plasma membranes of basal adipocytes set at 100; for 5′-Nuc amphiph hcDIGs / Gce1 amphiph hcDIGs / aP amphiph hcDIGs: basal set at 100.

For series [4] the following is noted: cited from earlier work.
A further series has as its system isolated rat adipocytes. The series can be described thus: isoproterenol-induced lipolysis measured as release of NBD-FA. The class given is cell-based. Here is the method:
Electroporation was performed as described in “Müller, G. et al., (2000) Mol. Cell. Biol. 20: 4708-4723”. Lipolysis was determined as release of glycerol or fluorescent NBD-FA from prelabeled and isoproterenol-stimulated adipocytes as described in “Müller, G. et al., (2003) Biochimie 85: 1245-1256”. Gce1 was detected by photolabeling of solubilized plasma membranes or hc/lcDIGs (10-50 μg protein) with 8-N3—[^32P]cAMP and subsequent phosphorimaging as described in “Müller, G. et al., (1994) Biochemistry 33: 12149-12159”. 5′-Nuc, aP and AChE activities were measured according to “Eliakim, R. et al., (1990) Biochim. Biophys. Acta 1355: 293-302”. Protein was determined using the BCA protein determination kit from Pierce (Rockford, Ill.) and BSA as calibration standard. SDS-PAGE was performed using precast gels (Novex, San Diego, Calif.; 10% Bis-Tris resolving gel, morpholinopropanesulfonic acid-SDS running buffer). Lumiimages were evaluated on a LumiImager using LumiImager software (Roche Diagnostics). Phosphor- and fluorescence images were processed and quantified using the Storm 860 PhosphorImager system (Molecular Dynamics, Gelsenkirchen, Germany). Figures were constructed using the ADOBE PHOTOSHOP software (Adobe Systems, Mountain View, Calif.).
FIG. 9: Isolated rat adipocytes were labeled with 0.5 mM NBD-FA (60 min, 37° C.), washed and then incubated (5 min, 37° C.) in the absence (Panels B, D) or presence of GPI-2350 (50 μM; Panels A, C) prior to challenge with increasing concentrations of glimepiride (Panels A, B) or insulin (Panels C, D). After further incubation (120 min, 37° C.) without or with isoproterenol (1 μM) as indicated, total cell suspensions were extracted with chloroform/heptane/methanol/0.1 N HCl (3/3/2/1, by vol.). The organic phases were analyzed by thin layer chromatography (diethylether/petrolether/acetic acid 78/22/1, by vol.) and fluorescence imaging in parallel with NBD-FA as marker. A typical experiment with 2 independent labelings and incubations is shown repeated once with similar results. TAG, triacylglycerol.

Where two headings read alike, the source gives them in different places.

As to `CCCCCCCCCCCCP1(=O)OC2C(O)C(O)C(O)C(O)C2O1` (racemic) [GPI-2350, myo-inositol-1,2-cyclo-dodecylphosphonic acid], the “stability as dried amorphous solid” value in the series “stability of compound 3” (4° C.) was “dried amorphous solid for years”. In addition, the stability in methanol entry in the series “stability of compound 3” (methanol) was “stable in methanol for days”.
For `CCCCCCCCCCCCP(=O)(O)O[C@@H]1[C@H](O)[C@H](O)[C@@H](O)[C@H](O)[C@H]1O[C@H]1O[C@H](CO)[C@@H](O)[C@H](O)[C@H]1N` [GMI-1-dodecylphosphonate], the inhibition in words result in series [1] was “considerably more inhibitory than the corresponding hexyl derivative”.
Consider `CCC1=C(C)CN(C(=O)NCCc2ccc(S(=O)(=O)NC(=O)N[C@H]3CC[C@H](C)CC3)cc2)C1=O` [Glimepiride, glimepiride], for which, in series [2], the “induced maximal losses of pp59Lyn and Gce1 from caveolin-1 immunoprecipitates” value is reported as 75-85%. In series [3], the “5′-Nuc amphiph IcDIGs” value is on record as 59 ± 9 arb. units, the “5′-Nuc hydroph. IcDIGs” value was 9 ± 3 arb. units, the “5′-Nuc hydroph. hcDIGs” value was 48 ± 10 arb. units and the “Gce1 amphiph IcDIGs” value was 79 ± 15 arb. units. Also, in series [3], the “Gce1 hydroph. IcDIGs” value is 12 ± 5 arb. units, the “Gce1 hydroph. hcDIGs” value was 69 ± 9 arb. units, the “aP amphiph IcDIGs” value was 49 ± 8 arb. units and the “aP hydroph. IcDIGs” value turned out to be 10 ± 2 arb. units. In addition, in series [3], the “aP hydroph. hcDIGs” value amounted to 88 ± 19 arb. units, the “5′-Nuc hydroph. PM” value turned out to be 19 ± 5 arb. units, the “Gce1 hydroph. PM” value stood at 40 ± 11 arb. units and the “aP hydroph. PM” value was determined as 54 ± 12 arb. units. In addition, in series [3], the “5′-Nuc amphiph hcDIGs” value is 35 ± 10 arb. units, the “Gce1 amphiph hcDIGs” value worked out at 25 ± 10 arb. units and the “aP amphiph hcDIGs” value was 10 ± 3 arb. units. Besides, the “time of greatest blood glucose lowering effects after the dose” value in series [4] (human, in vivo) is at most 4 h. Moreover, the “hypoglycaemia, patients” value in series [4] (receiving concomitant insulin for 6 months) is recorded as at most 50%. Besides, the 50% inhibitory concentration (IC50) (usually the concentration at which inhibition is half-maximal) in the series on isolated rat adipocytes (Rattus norvegicus, Adipocyte, isoproterenol-induced adipocytes, FIG. 9, read-out: IC50 for reduction of NBD-FA release) is 3 µM. For the same compound, the “reduction of NBD-FA release in the presence of inhibitor” value with isolated rat adipocytes (in the presence of 50 μM glimepiride (so in the source), Panels A, B) was “completely abrogated”.
With `N[C@H]1[C@@H](O[C@@H]2[C@@H](O)[C@H](O)[C@@H](O)[C@H]3OP(=O)(O)O[C@H]32)O[C@H](CO)[C@@H](O)[C@@H]1O` [glucosamine (α1→6)-inositol-1,2-cyclic phosphate], the inhibition in words entry in series [1] is recorded as “better inhibitor than GMI-1-phosphate”.
`CCCCCCCCCCCCOP(=O)(O)OC1C(O)C(O)C(O)C(O)C1O` (stereo not shown) [myo-inositol-1-O-dodecylphosphate]: the inhibition in words entry in series [1] was “inhibit the trypanosomal GPI-PLC”.
Turning to Insulin: Human recombinant insulin, the “induced maximal losses of pp59Lyn and Gce1 from caveolin-1 immunoprecipitates” value in series [2] was 35-45%. In series [3], the “5′-Nuc amphiph IcDIGs” value was 28 ± 4 arb. units, the “5′-Nuc hydroph. IcDIGs” value is given as 7 ± 2 arb. units, the “5′-Nuc hydroph. hcDIGs” value is 34 ± 8 arb. units and the “Gce1 amphiph IcDIGs” value turned out to be 35 ± 9 arb. units. In series [3], the “Gce1 hydroph. IcDIGs” value turned out to be 19 ± 5 arb. units, the “Gce1 hydroph. hcDIGs” value is listed as 58 ± 12 arb. units, the “aP amphiph IcDIGs” value stood at 27 ± 5 arb. units and the “aP hydroph. IcDIGs” value was determined as 4 ± 2 arb. units. Moreover, in series [3], the “aP hydroph. hcDIGs” value is recorded as 69 ± 8 arb. units, the “5′-Nuc hydroph. PM” value is 14 ± 5 arb. units, the “Gce1 hydroph. PM” value worked out at 29 ± 7 arb. units and the “aP hydroph. PM” value stood at 31 ± 6 arb. units. Also, in series [3], the “5′-Nuc amphiph hcDIGs” value amounted to 81 ± 17 arb. units, the “Gce1 amphiph hcDIGs” value was 64 ± 8 arb. units and the “aP amphiph hcDIGs” value amounted to 44 ± 7 arb. units. The 50% inhibitory concentration (IC50) with isolated rat adipocytes (absence of GPI-2350, read-out: apparent IC50 for inhibition of NBD-FA release) came out at 0.1 µM. Further, the IC50 in the series on isolated rat adipocytes (presence of GPI-2350 (50 μM), read-out: apparent IC50 for inhibition of NBD-FA release) turned out to be 0.3 µM.
